# Measurements as given in the METLIN SMRT retention time set (Domingo-Almenara et al. 2019).
# Experiment: gradient 5% acetonitrile 3 min, to 50% in 2 min, to 85% in 15 min, held 3 min, 100 µL/min
# Conditions: column: Zorbax Extend-C18 2.1 x 50 mm; eluents: water / acetonitrile, 0.1% formic acid
# In short: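 Over 3 months, pure standards in mixtures of ~100 molecules were run by HPLC coupled to a quadrupole time-of-flight mass spectrometer in positive and negative ionization mode. The column was a Zorbax Extend-C18 (2.1 × 50 mm, 1.8 μm) at 100 μL/min, eluted with water and acetonitrile each holding 0.1% formic acid, with 40 μL dead and 900 μL dwell volumes. Retention time was determined from adduct peaks chosen by software and checked manually.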
row,SMILES,RP-LC retention time [s]
1,CCOCCCNC(=O)Cn1c(=O)c2cccn2c2ccccc21,689
2,Cc1noc(-c2nn(C)c3c2CN(C(=O)NC(C)C)CC3)n1,640
3,CC(C)(C)c1cc(NC(=O)CSCc2ccccc2)n(CCO)n1,772
4,O=C(c1noc2ccc(S(=O)(=O)N3CCN(c4ccccn4)CC3)cc12)N1CCCCC1,703
5,O=C(Nc1ccc(-c2nnc3n2CCCC3)cc1)C1CCC1,622
6,Cc1ccc2c(c1)c1c(n2CC(O)Cn2nc(C)cc2C)CCCC1 (stereo unspecified),1050
7,CCc1ccc(CNC(=O)CCC2CCCN(S(=O)(=O)c3ccccc3C)C2)cc1 (stereo unspecified),1070
8,O=C(Cn1nc2c(N3CCCCCC3)nccn2c1=O)Nc1cc(F)ccc1F,731
9,CCOC(=O)c1c(S(=O)(=O)N2CCC(C(=O)Nc3ccc(OC)cc3)CC2)c(C)n(C)c1C,804
10,O=C(Nc1cccc(F)c1)C(=O)c1ccc[nH]1,846
11,CCCNC(=O)C1CCN(c2ccc(SCC(=O)Nc3ccc(N(CC)CC)cc3C)nn2)CC1,576
12,C[C@H]1CN(C(=O)c2cc(F)cc(F)c2)C[C@@H]1c1nc(-c2ccccc2)no1,1040
13,CCc1ccc(-c2cc(C(=O)N3CCN(c4cc(=O)n(C(C)C)c(=O)n4C(C)C)CC3)[nH]n2)cc1,946
14,COc1cccc(S(=O)(=O)N2C[C@@H]3C[C@H](NC(=O)c4cccs4)[C@H]2C3)c1,854
15,CCOc1ccc(NC(=O)c2cc(=O)c3cc(Cl)ccc3o2)c2cccnc12,665
16,Cc1sc2ccn(C)c(=O)c2c1C(=O)Nc1ccccc1,818
17,COc1ccc(CNC(=O)c2cc3sc(Cl)cc3n2C)cc1,1030
18,COc1cccc(N2CCN(CC(O)c3ccc(C)cc3)CC2)c1 (stereo unspecified),677
19,CCn1nc2ccc(S(=O)(=O)N3CCC(C)CC3)cn2c1=O,827
20,CN1C(=O)c2cccnc2Sc2cc(NC(=O)COc3ccccc3)ccc21,813
21,CSc1cccc(NC(=O)NC2CCN(c3ccc(C)c(C)c3)C2=O)c1 (stereo unspecified),929
22,COc1ccc(OC)c(-c2ccc(=O)n(CC(=O)Nc3ccc(-n4cnnn4)cc3)n2)c1,689
23,COc1cc(C(=O)Nc2nnc(SCc3nnc(-c4ccccc4)o3)s2)cc(OC)c1OC,871

row,SMILES,RP-LC retention time [s]
1,COC(=O)N1CCc2ccc(Br)cc2C1C(=O)Nc1ccon1 (stereo unspecified),785
2,O=C(NCCc1cccs1)c1nnc(-c2ccc(S(=O)(=O)N3CCCC3)cc2)o1,889
3,CCC(C)NS(=O)(=O)c1ccc(-c2n[nH]c(C)c2C)o1 (stereo unspecified),772
4,Cc1ccc(-c2cc3c4nnc(CCC(=O)NCCCOC(C)C)n4ccn3n2)cc1C,759
5,COc1ccc2[nH]cc(CCN3CC(C(=O)Nc4cc(C)cc(C)c4)CC3=O)c2c1 (stereo unspecified),846
6,Cn1cnc2c(C(=O)NCC3CCCO3)nn(-c3ccc(Cl)cc3)c2c1=O (stereo unspecified),715
7,CCn1cc(C)c(C(=O)O)c1CC(=O)NCCc1ccc(C)cc1,842
8,O=C(C1CCN(c2ncnc3c2oc2ccccc23)CC1)N1CCN(C2CCCCC2)CC1,590
9,COC1CN(C2CCN(C(=O)c3sc(C)nc3C)CC2)C12CCOCC2 (stereo unspecified),796
10,Cc1ccc2c(Nc3cccc(C#N)c3)c(C(=O)N3CCCCC3)cnc2n1,598
11,N#Cc1ccc(C(=O)Nc2cnn(-c3ncc(N4CCCCC4)cn3)c2)cc1,848
12,Clc1ccc(Cl)c(-c2ccc(CNCCN3CCNCC3)o2)c1,603
13,CCOc1ccc(-n2c(SCC(=O)Nc3ncn[nH]3)nc3ccsc3c2=O)cc1,692
14,CCCNC(=O)C1CCCN(c2ccc(SCC(=O)Nc3cc(OC)cc(OC)c3)nn2)C1 (stereo unspecified),673
15,COc1ccc(-c2cn3c(CC(=O)Nc4ccc(OC)cc4OC)csc3n2)cc1,746
16,CC(Oc1ccc(Cl)cc1)C(=O)NCC1CCOCC1 (stereo unspecified),782
17,CCCCCc1ccc(/C=C/C(=O)Nc2ccccc2C(=O)O)cc1,1230
18,Cc1ccc(S(=O)(=O)CCc2noc(-c3sc(C)nc3C)n2)cc1,818
19,Nn1c(Cc2ccccc2)nnc1Cc1ccccc1,744
20,O=C1C=C(N2CCNCC2)C(=O)c2c(O)ccc(O)c21,600
21,COc1ccccc1CNS(=O)(=O)c1cc2n(c1)CCN(C(C)C)C2=O,784
22,O=C(Nc1nc(C(=O)N2CCN(c3ccccn3)CC2)co1)c1cnccn1,517
23,COc1ccc2nc(NC(=O)CCCN3C(=O)C4C5C=CC(C5)C4C3=O)sc2c1 (stereo unspecified),817

row,SMILES,RP-LC retention time [s]
1,CCc1nnc2ccc(-c3noc(Cc4ccc(Cl)cc4)n3)cn12,932
2,O=C(C1CCC1)N1CCc2sc(S(=O)(=O)Nc3cccc(Cl)c3)cc2C1,941
3,O=C(c1ccc(Br)cc1)N1CCN(C(=O)c2cc(-c3ccncc3)n[nH]2)CC1,616
4,CCOC(=O)C1CC(=O)c2cc(OC)c(OC)cc2C1 (stereo unspecified),812
5,CCOc1ccc(NC(=O)N(Cc2ccc3c(c2)OCO3)C2CCN(CC)CC2)cc1,661
6,O=C(Cn1ccc2sccc2c1=O)NCc1ccccc1,696
7,COc1cc(-c2ccnc3nc(CCc4ccccc4)nn23)cc(OC)c1OC,856
8,Cc1noc(-c2ccc(OC3CN(C(=O)c4cccc5[nH]ccc45)C3)cc2)n1,597
9,Cc1ccc(CNC(=O)c2cc(NC(=O)C(C)C)cc3nc(C)ccc23)cc1,680
10,O=C1COc2ccc(-c3csc(NC(=O)c4ccc(Cl)cc4)n3)cc2N1,899
11,Cc1ccc(NC(=O)/C=C/c2ccccc2)c(C)c1,913
12,Cc1ccc2c(NCc3ccc4c(c3)OCO4)c(C(=O)OC(C)C)cnc2n1,737
13,CCOCCCNC(=O)C1CCN(c2nnc3cccc(C)n23)CC1,593
14,CCc1cccc(C)c1Nc1c(-c2ccc(C(=O)OC)cc2)nc2cnccn12,982
15,CCOC(=O)c1cnn(-c2ccc(C(=O)NCc3ccco3)cn2)c1C,804
16,COc1ccc(NC(=O)Cn2cnc3nc4c(cc3c2=O)CCCC4)cc1OC,676
17,Fc1ccc(CN2CCC(Cc3nc(-c4ccncc4)n[nH]3)C2)c(F)c1 (stereo unspecified),552
18,COc1ccccc1N1CCN(S(=O)(=O)c2cc3c(s2)CCN(C(C)=O)C3)CC1,838
19,COc1cccc(C(=O)NCCOc2cccc(C(F)(F)F)c2)c1OC,972
20,Cc1c(NS(=O)(=O)CCOc2ccccc2)c(=O)n(-c2ccccc2)n1C,729
21,Cn1c(C(=O)N2CCN(c3ncccn3)CC2)cc2c(-c3cccs3)nn(-c3ccccc3)c21,1030
22,CCCNC(=O)C1CCCN(c2nc3ncn(CC(=O)Nc4ccc5c(c4)OCO5)c(=O)c3s2)C1 (stereo unspecified),640
23,CCOc1ccc(CC(=O)N2C[C@@H]3C[C@H](NC(=O)c4cccs4)[C@H]2C3)cc1,782

row,SMILES,RP-LC retention time [s]
1,Cc1ccc(S(=O)(=O)N2C[C@@H]3C[C@H](NC(=O)c4cccs4)[C@H]2C3)cc1Cl,992
2,CC(=O)c1cccc(Nc2c(C(=O)N3CCCC3)cnc3nc(C)ccc23)c1,587
3,O=C(Cn1nc2n(c1=O)CCCC2)NCCCc1ccccc1,709
4,CC(NC(=O)c1cc(-c2ccccc2)cn1C)c1ccccn1 (stereo unspecified),703
5,CCN1CCN(CCNC(=O)C2CCCN(c3ncc(-c4ccc(F)cc4)cn3)C2)CC1 (stereo unspecified),632
6,CCCN1CCN(c2ccc(NC(=O)C(C)(C)C)c(C(=O)O)c2)CC1,611
7,Cc1ccc(NC(=O)Cn2nc(N3CCCC(C)C3)c3ccccc3c2=O)c(C)c1 (stereo unspecified),1150
8,CCc1noc(-c2cccn2CC#N)n1,824
9,CCn1cc(S(=O)(=O)N2[C@H]3CC[C@@H]2c2cnc(-c4ccccc4)nc2C3)cn1,868
10,O=C(Cn1c(=O)nc(-c2ccccc2)c2ccccc21)N1CCN(c2ccccn2)CC1,609
11,CCn1nccc1C(=O)N1CC(Oc2ccc(-c3nc(C)no3)cc2)C1,800
12,COc1cccc2sc(N3CCN(C(=O)C4CCN(S(C)(=O)=O)CC4)CC3)nc12,697
13,Cc1ccc(Sc2nccnc2N2CCCC(C(=O)Nc3ccc(Br)cc3)C2)cc1 (stereo unspecified),1280
14,O=C1c2ccccc2C(=O)N1CCn1ncccc1=O,603
15,Cn1c(-c2cccs2)c(CNC(=O)Nc2ccc3c(c2)OCO3)c2ccccc21,1010
16,O=C(Nc1ccccc1)c1cccn1Cc1noc(C2CC2)n1,885
17,COc1cccc(OC)c1CN1CCC2(CC1)CC(O)CCO2 (stereo unspecified),597
18,O=C(Nc1ccc2c(c1)CN(C(=O)C1CC1)CC2)NC1CC1,632
19,CCn1nc(C)c(S(=O)(=O)N2CCN(C(=O)C(C)Oc3cccc(Cl)c3)CC2)c1C (stereo unspecified),850
20,CCOc1ccc2c(n1)CCN(C(=O)NCC(C)C)C2,740
21,COc1cccc(CC(=O)Nc2cnn(C)c(=O)c2N2CCOCC2)c1,725
22,Cc1ccc(-c2nnc(N3CCC(C(=O)NCCN4CCCCCC4)CC3)o2)cc1,632
